From paper PMC6934184, “Selective DNA-PKcs inhibition extends the therapeutic index of localized radiotherapy and chemotherapy” (The Journal of Clinical Investigation, 2019)

Target: T1, CAMK2A (CaMKII alpha) (Homo sapiens, UniProt Q9UQM7)
T1 construct: purchased Thermo Fisher Scientific (Life Technologies) SelectScreen
Experiment: SelectScreen Z'LYTE
Format: biochemical
Procedure, shortened: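 NU5455 was profiled across the SelectScreen Broad panel of kinase activity and binding assays. Z'LYTE reactions such as CSF1R ran at apparent Km ATP, while the Adapta CAMK1 assay used ATP listed as 10. Values are given as percent.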

T1 sequence (Q9UQM7 whole entry): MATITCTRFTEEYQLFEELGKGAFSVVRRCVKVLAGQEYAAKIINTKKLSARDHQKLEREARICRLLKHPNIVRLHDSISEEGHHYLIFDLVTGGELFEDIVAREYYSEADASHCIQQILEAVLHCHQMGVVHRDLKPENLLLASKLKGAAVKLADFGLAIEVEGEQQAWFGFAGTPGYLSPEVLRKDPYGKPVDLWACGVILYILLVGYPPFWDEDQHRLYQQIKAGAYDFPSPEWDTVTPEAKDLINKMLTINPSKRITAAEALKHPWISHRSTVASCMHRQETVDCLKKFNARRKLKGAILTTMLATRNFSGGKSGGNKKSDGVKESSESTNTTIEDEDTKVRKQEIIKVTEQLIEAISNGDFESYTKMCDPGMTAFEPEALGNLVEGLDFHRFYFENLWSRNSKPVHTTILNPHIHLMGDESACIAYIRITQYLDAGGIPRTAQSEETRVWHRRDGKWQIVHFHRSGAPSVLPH

For `CN(C(=O)CN1CCOCC1)c1ccc2sc3c(-c4cccc5c(=O)cc(N6CC7CCC(C6)O7)oc45)cccc3c2c1` [NU5455], the inhibition at 1 µM was -0.6%.
